{"source": "patent US20220288022A1", "about": "“PHARMACEUTICAL COMPOSITION FOR TOPICAL USE THAT IS IN THE FORM OF A DISPERSED PHASE BASED ON AT LEAST ONE SHORT DIOL IN A CONTINUOUS FATTY PHASE AND COMPRISING AT LEAST ONE ANTI-INFLAMMATORY SUBSTANCE” (SOCIETE D'EXPLOITATION DE PRODUITS POUR LES INDUSTRIES …, priority 2019, published 2022)", "experiment": "Conductivity (σ) of the emulsions, characterization of the direction of the emulsion", "assay_type": "physicochemical", "conditions": "measured at 25° C., neat diol", "procedure": "The conductivity (σ) of the emulsions (F1) to (F3) according to the invention and of the emulsions (F′1) to (F′3) is measured at 25° C., after a period of storage of said emulsions of one day in an insulated climatic chamber regulated at a temperature of 25° C., by means of an LF 196™ brand conductivity meter from the company WTW equipped with a TetraCon™ 96 electrode. If, for a given emulsion, (σ)≤0.5 μS.cm^−1, the emulsion is considered to be non-conductive and consequently the external phase is not the phase based on 1,2-propanediol but the oily phase. Indeed, the conductivity, measured at 25° C., of 1,2-propanediol is equal to 4400 μS.cm^−1. If, for a given emulsion, (σ)>0.5 μS.cm^−1, the emulsion is considered to be conductive and consequently the external phase is not the oily phase but the phase based on 1,2-propanediol or glycerol or PEG-400. This same measurement of the conductivity of the emulsions (F1) to (F3) according to the invention and of the comparative emulsions (F′1) to (F′3) is measured at 25° C. after three months at 25° C., and after three months at 45° C."}
{"smiles": "CC(O)CO", "note": "(stereo not shown) [1,2-propanediol]", "values": [{"measurement": "conductivity of 1,2-propanediol", "value": 4400, "unit": "μS.cm^−1"}]}
